Assay results from patent US20230085307A1, “PYRIDAZINONE COMPOUND AND HERBICIDE” (NISSAN CHEMICAL CORPORATION, priority 2019, published 2023).

How the values were obtained:
[1] = system: persian speedwell; assay: Test Example 5: herbicidal effect by foliage application, plastic box (Table 20, symbol R); assay type: in vivo, Persian speedwell (Veronica persica); conditions: foliage application, 320 g/ha, 3 weeks after application
Procedure, shortened: (§1)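 Sow seeds spot-wise in sterilized diluvial soil; cover with ~1.5 cm soil. Grow 14 days in greenhouse, 25° C. to 30° C. Spray foliage with emulsion diluted to predetermined amount. Rate effect after 3 weeks.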

[2] = system: lambsquarters; assay: Test Example 5: herbicidal effect by foliage application, plastic box (Table 20, symbol O); assay type: in vivo, lambsquarters (Chenopodium album); conditions: foliage application, 320 g/ha, 3 weeks after application
Procedure, shortened: as §1

[3] = system: wild oat; assay: Test Example 4: herbicidal effect by soil treatment (Table 19, symbol I); assay type: in vivo, wild oat (Avena fatua)
Procedure, shortened: (§2)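 Soil-surface application: an emulsion agent diluted with water to the predetermined dose is sprayed uniformly over seeds lying under roughly 1.5 cm of sterilized diluvial soil. Boxes stay in a greenhouse at 25° C. to 30° C. Three weeks later, each species is graded on previously defined criteria.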

[4] = system: persian speedwell; assay: Test Example 4: herbicidal effect by soil treatment (Table 19, symbol R); assay type: in vivo, Persian speedwell (Veronica persica)
Procedure, shortened: as §2

[5] = system: barnyard grass; assay: Test Example 4: herbicidal effect by soil treatment (Table 19, symbol H); assay type: in vivo, barnyard grass (Echinochloa crus-galli)
Procedure, shortened: as §2

[6] = system: Italian ryegrass; assay: Test Example 5: herbicidal effect by foliage application, plastic box (Table 20, symbol K); assay type: in vivo, Italian ryegrass (Lolium multiflorum); conditions: foliage application, 320 g/ha, 3 weeks after application
Procedure, shortened: as §1

[7] = system: Chinese sprangletop; assay: Test Example 3: herbicidal effect by foliage application, Wagner pot (Table 18, symbol D); assay type: in vivo, chinese sprangletop (Leptochloa chinensis); conditions: 320 g/ha
Procedure, shortened: (§3)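 Plants were sown in alluvial soil held under 0.1–0.5 cm standing water and grown 14 days in a greenhouse at 25–30 °C. An emulsifiable formulation, water-diluted to the set dose, was then sprayed onto the foliage, and effects were scored three weeks later using previously defined criteria.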

[8] = system: windgrass; assay: Test Example 4: herbicidal effect by soil treatment (Table 19, symbol L); assay type: in vivo, windgrass (Apera spica-venti)
Procedure, shortened: as §2

[9] = system: barnyard grass; assay: Test Example 3: herbicidal effect by foliage application, Wagner pot (Table 18, symbol H); assay type: in vivo, barnyard grass (Echinochloa crus-galli); conditions: 320 g/ha
Procedure, shortened: as §3

[10] = system: wild oat; assay: Test Example 5: herbicidal effect by foliage application, plastic box (Table 20, symbol I); assay type: in vivo, wild oat (Avena fatua); conditions: foliage application, 320 g/ha, 3 weeks after application
Procedure, shortened: as §1

[11] = system: velvetleaf; assay: Test Example 5: herbicidal effect by foliage application, plastic box (Table 20, symbol M); assay type: in vivo, velvetleaf (Abutilon theophrasti); conditions: foliage application, 320 g/ha, 3 weeks after application
Procedure, shortened: as §1

[12] = system: redroot pigweed; assay: Test Example 4: herbicidal effect by soil treatment (Table 19, symbol N); assay type: in vivo, redroot pigweed (Amaranthus retroflexus)
Procedure, shortened: as §2

[13] = system: windgrass; assay: Test Example 5: herbicidal effect by foliage application, plastic box (Table 20, symbol L); assay type: in vivo, windgrass (Apera spica-venti); conditions: foliage application, 320 g/ha, 3 weeks after application
Procedure, shortened: as §1

[14] = system: rice flat sedge; assay: Test Example 3: herbicidal effect by foliage application, Wagner pot (Table 18, symbol E); assay type: in vivo, rice flat sedge (Cyperus iria); conditions: 320 g/ha
Procedure, shortened: as §3

[15] = system: green foxtail; assay: Test Example 5: herbicidal effect by foliage application, plastic box (Table 20, symbol G); assay type: in vivo, green foxtail (Setaria viridis); conditions: foliage application, 320 g/ha, 3 weeks after application
Procedure, shortened: as §1

[16] = system: lambsquarters; assay: Test Example 4: herbicidal effect by soil treatment (Table 19, symbol O); assay type: in vivo, lambsquarters (Chenopodium album)
Procedure, shortened: as §2

[17] = system: chickweed; assay: Test Example 4: herbicidal effect by soil treatment (Table 19, symbol P); assay type: in vivo, common chickweed (Stellaria media)
Procedure, shortened: as §2

[18] = system: southern crabgrass; assay: Test Example 4: herbicidal effect by soil treatment (Table 19, symbol F); assay type: in vivo, southern crabgrass (Digitaria ciliaris)
Procedure, shortened: as §2

[19] = system: blackgrass; assay: Test Example 4: herbicidal effect by soil treatment (Table 19, symbol J); assay type: in vivo, blackgrass (Alopecurus myosuroides)
Procedure, shortened: as §2

[20] = system: Italian ryegrass; assay: Test Example 4: herbicidal effect by soil treatment (Table 19, symbol K); assay type: in vivo, Italian ryegrass (Lolium multiflorum)
Procedure, shortened: as §2

[21] = system: velvetleaf; assay: Test Example 4: herbicidal effect by soil treatment (Table 19, symbol M); assay type: in vivo, velvetleaf (Abutilon theophrasti)
Procedure, shortened: as §2

[22] = system: blackgrass; assay: Test Example 5: herbicidal effect by foliage application, plastic box (Table 20, symbol J); assay type: in vivo, blackgrass (Alopecurus myosuroides); conditions: foliage application, 320 g/ha, 3 weeks after application
Procedure, shortened: as §1

[23] = system: barnyard grass; assay: Test Example 5: herbicidal effect by foliage application, plastic box (Table 20, symbol H); assay type: in vivo, barnyard grass (Echinochloa crus-galli); conditions: foliage application, 320 g/ha, 3 weeks after application
Procedure, shortened: as §1

[24] = system: green foxtail; assay: Test Example 4: herbicidal effect by soil treatment (Table 19, symbol G); assay type: in vivo, green foxtail (Setaria viridis)
Procedure, shortened: as §2

[25] = system: southern crabgrass; assay: Test Example 5: herbicidal effect by foliage application, plastic box (Table 20, symbol F); assay type: in vivo, southern crabgrass (Digitaria ciliaris); conditions: foliage application, 320 g/ha, 3 weeks after application
Procedure, shortened: as §1

| Compound | effect on persian speedwell (R) [1] | effect on lambsquarters (O) [2] | effect on Italian ryegrass (K) [6] | herbicidal effect on D (Chinese sprangletop), rating 0-5 [7] | herbicidal effect on H (barnyard grass), rating 0-5 [9] | effect on wild oat (I) [10] | effect on velvetleaf (M) [11] | effect on windgrass (L) [13] | herbicidal effect on E (rice flat sedge), rating 0-5 [14] | effect on green foxtail (G) [15] | effect on blackgrass (J) [22] | effect on barnyard grass (H) [23] | effect on southern crabgrass (F) [25] | other results |
| --- | --- | --- | --- | --- | --- | --- | --- | --- | --- | --- | --- | --- | --- | --- |
| COCCSCc1ccc(-c2sc3ccccc3c2-c2c(O)c(C)nn(C)c2=O)cc1 [1-251] | 5 (Herbicidal rate of 90% or more (almost completely withered)) | 4 (Herbicidal rate of 70% or more and less than 90%) | 4 (Herbicidal rate of 70% or more and less than 90%) | 3 (Herbicidal rate of 40% or more and less than 70%) | 5 (Herbicidal rate of 90% or more (almost completely withered)) | 0 (Herbicidal rate of 5% or less (almost no effect)) | 5 (Herbicidal rate of 90% or more (almost completely withered)) | 0 (Herbicidal rate of 5% or less (almost no effect)) | 3 (Herbicidal rate of 40% or more and less than 70%) | 5 (Herbicidal rate of 90% or more (almost completely withered)) | 3 (Herbicidal rate of 40% or more and less than 70%) | 4 (Herbicidal rate of 70% or more and less than 90%) | 1 (Herbicidal rate of 5% or more and less than 20%) | I: wild oat, herbicidal effect rating ([3]; AAH 320 g/ha): 0 (Herbicidal rate of 5% or less (almost no effect)); R: persian speedwell, herbicidal effect rating ([4]; AAH 320 g/ha): 4 (Herbicidal rate of 70% or more and less than 90%); H: barnyard grass, herbicidal effect rating ([5]; AAH 320 g/ha): 0 (Herbicidal rate of 5% or less (almost no effect)); L: windgrass, herbicidal effect rating ([8]; AAH 320 g/ha): 0 (Herbicidal rate of 5% or less (almost no effect)); N: redroot pigweed, herbicidal effect rating ([12]; AAH 320 g/ha): 0 (Herbicidal rate of 5% or less (almost no effect)); O: lambsquarters, herbicidal effect rating ([16]; AAH 320 g/ha): 0 (Herbicidal rate of 5% or less (almost no effect)); P: chickweed, herbicidal effect rating ([17]; AAH 320 g/ha): 0 (Herbicidal rate of 5% or less (almost no effect)); F: southern crabgrass, herbicidal effect rating ([18]; AAH 320 g/ha): 0 (Herbicidal rate of 5% or less (almost no effect)); J: blackgrass, herbicidal effect rating ([19]; AAH 320 g/ha): 0 (Herbicidal rate of 5% or less (almost no effect)); K: Italian ryegrass, herbicidal effect rating ([20]; AAH 320 g/ha): 0 (Herbicidal rate of 5% or less (almost no effect)); M: velvetleaf, herbicidal effect rating ([21]; AAH 320 g/ha): 0 (Herbicidal rate of 5% or less (almost no effect)); G: green foxtail, herbicidal effect rating ([24]; AAH 320 g/ha): 0 (Herbicidal rate of 5% or less (almost no effect)) |
| Cc1nn(C)c(=O)c(-c2c(-c3ccc(OC(F)(F)F)cc3)sc3ccc(F)cc23)c1O [2-045] | 5 (Herbicidal rate of 90% or more (almost completely withered)) | 5 (Herbicidal rate of 90% or more (almost completely withered)) | 5 (Herbicidal rate of 90% or more (almost completely withered)) | 2 (Herbicidal rate of 20% or more and less than 40%) | 5 (Herbicidal rate of 90% or more (almost completely withered)) | 0 (Herbicidal rate of 5% or less (almost no effect)) | 5 (Herbicidal rate of 90% or more (almost completely withered)) | 5 (Herbicidal rate of 90% or more (almost completely withered)) | 5 (Herbicidal rate of 90% or more (almost completely withered)) | 5 (Herbicidal rate of 90% or more (almost completely withered)) | 0 (Herbicidal rate of 5% or less (almost no effect)) | 5 (Herbicidal rate of 90% or more (almost completely withered)) | 0 (Herbicidal rate of 5% or less (almost no effect)) | herbicidal effect rating, I: wild oat ([3]; 320 g/ha): 0 (Herbicidal rate of 5% or less (almost no effect)); herbicidal effect rating, R: persian speedwell ([4]; 320 g/ha): 5 (Herbicidal rate of 90% or more (almost completely withered)); herbicidal effect rating, H: barnyard grass ([5]; 320 g/ha): 1 (Herbicidal rate of 5% or more and less than 20%); herbicidal effect rating, L: windgrass ([8]; 320 g/ha): 0 (Herbicidal rate of 5% or less (almost no effect)); herbicidal effect rating, N: redroot pigweed ([12]; 320 g/ha): 4 (Herbicidal rate of 70% or more and less than 90%); herbicidal effect rating, O: lambsquarters ([16]; 320 g/ha): 5 (Herbicidal rate of 90% or more (almost completely withered)); herbicidal effect rating, P: chickweed ([17]; 320 g/ha): 5 (Herbicidal rate of 90% or more (almost completely withered)); herbicidal effect rating, F: southern crabgrass ([18]; 320 g/ha): 3 (Herbicidal rate of 40% or more and less than 70%); herbicidal effect rating, J: blackgrass ([19]; 320 g/ha): 0 (Herbicidal rate of 5% or less (almost no effect)); herbicidal effect rating, K: Italian ryegrass ([20]; 320 g/ha): 5 (Herbicidal rate of 90% or more (almost completely withered)); herbicidal effect rating, M: velvetleaf ([21]; 320 g/ha): 4 (Herbicidal rate of 70% or more and less than 90%); herbicidal effect rating, G: green foxtail ([24]; 320 g/ha): 4 (Herbicidal rate of 70% or more and less than 90%) |
